Measured values published in PubChem BioAssay (NCI).
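Cultured in 96-well plates, cells were exposed to test compound for 48 hours across five concentrations. Definition used: TGI = concentration required for complete inhibition of growth.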

Experiments:
Assay in all cases: DTP human tumour cell line panel, 48 h
786-0 renal = system: 786-0 renal
CCRF-CEM leukemia = system: CCRF-CEM leukemia
HCC-2998 colon = system: HCC-2998 colon
LOX IMVI melanoma = system: LOX IMVI melanoma
MDA-N = system: MDA-N
NCI/ADR-RES ovarian = system: NCI/ADR-RES ovarian
SK-MEL-5 melanoma = system: SK-MEL-5 melanoma
SN12C renal = system: SN12C renal
SNB-75 CNS = system: SNB-75 CNS
SW-620 colon = system: SW-620 colon
UACC-62 melanoma = system: UACC-62 melanoma

CCCNC(=S)N/N=C(\C)c1ccc(S(=O)(=O)N(C)c2ccccc2)cc1
TGI (786-0 renal): > 72.9 µM | TGI (CCRF-CEM leukemia): > 31.6 µM | TGI (HCC-2998 colon): > 100 µM | TGI (LOX IMVI melanoma): > 100 µM | TGI (MDA-N): > 100 µM | TGI (NCI/ADR-RES ovarian): > 100 µM | TGI (SK-MEL-5 melanoma): > 100 µM | TGI (SN12C renal): > 100 µM | TGI (SNB-75 CNS): > 58.4 µM | TGI (SW-620 colon): > 100 µM | TGI (UACC-62 melanoma): > 100 µM

COC(=O)c1c(C(=O)OC)c2ccccn2c1-c1cc(OC)c(Br)c(=O)o1
TGI (786-0 renal): > 100 µM | TGI (CCRF-CEM leukemia): > 100 µM | TGI (HCC-2998 colon): > 100 µM | TGI (LOX IMVI melanoma): > 100 µM | TGI (MDA-N): > 100 µM | TGI (NCI/ADR-RES ovarian): > 100 µM | TGI (SK-MEL-5 melanoma): > 100 µM | TGI (SN12C renal): > 100 µM | TGI (SNB-75 CNS): 66.3 µM | TGI (SW-620 colon): > 100 µM | TGI (UACC-62 melanoma): > 100 µM

COC(=O)C1CCN(C(=O)OC(C)(C)C)CC1
TGI (786-0 renal): > 100 µM | TGI (CCRF-CEM leukemia): > 100 µM | TGI (HCC-2998 colon): > 100 µM | TGI (LOX IMVI melanoma): > 100 µM | TGI (MDA-N): > 100 µM | TGI (NCI/ADR-RES ovarian): > 100 µM | TGI (SK-MEL-5 melanoma): > 100 µM | TGI (SN12C renal): > 100 µM | TGI (SNB-75 CNS): > 100 µM | TGI (SW-620 colon): > 100 µM | TGI (UACC-62 melanoma): > 100 µM

CSc1nc(C)cc(Nc2ccc(O)c(CN3CCOCC3)c2)n1
TGI (786-0 renal): > 100 µM | TGI (CCRF-CEM leukemia): > 100 µM | TGI (HCC-2998 colon): > 100 µM | TGI (LOX IMVI melanoma): > 100 µM | TGI (MDA-N): > 100 µM | TGI (NCI/ADR-RES ovarian): > 100 µM | TGI (SK-MEL-5 melanoma): > 100 µM | TGI (SN12C renal): > 100 µM | TGI (SNB-75 CNS): > 100 µM | TGI (SW-620 colon): > 100 µM | TGI (UACC-62 melanoma): > 100 µM

CC(=O)c1[nH]c(NC(C)C)c(C(=S)Nc2ccccc2)c1N
TGI (786-0 renal): 61.8 µM | TGI (CCRF-CEM leukemia): 72.9 µM | TGI (HCC-2998 colon): 75.5 µM | TGI (LOX IMVI melanoma): 37.8 µM | TGI (MDA-N): 61.3 µM | TGI (NCI/ADR-RES ovarian): > 100 µM | TGI (SK-MEL-5 melanoma): 42.2 µM | TGI (SN12C renal): 75.1 µM | TGI (SNB-75 CNS): > 100 µM | TGI (SW-620 colon): > 100 µM | TGI (UACC-62 melanoma): 53.8 µM

Cc1cc(Cl)nc2nc(Cl)c(N)cc12
TGI (786-0 renal): 10.5 µM | TGI (CCRF-CEM leukemia): > 19.7 µM | TGI (HCC-2998 colon): 3.59 µM | TGI (LOX IMVI melanoma): 3.63 µM | TGI (MDA-N): 3.63 µM | TGI (NCI/ADR-RES ovarian): 58.2 µM | TGI (SK-MEL-5 melanoma): 24.6 µM | TGI (SN12C renal): 3.21 µM | TGI (SNB-75 CNS): 30 µM | TGI (SW-620 colon): 4.08 µM | TGI (UACC-62 melanoma): 5.95 µM
